Data set [1] can be described thus: Plasma protein binding, rat. The data set is classed as in vitro ADME. Particulars: read-out: plasma protein binding (% bound) (converted). The protocol: Unbound drug concentration in the brain was also investigated, and plasma protein binding assays were conducted. The following table (% bound) indicates results for Compound A.
Unbound drug concentration in the brain was also investigated, and plasma protein binding assays were conducted. The following table (% bound) indicates results for Compound B.

Data set [2] deals with NMDAR2D (Homo sapiens, UniProt O15399+Q05586). The experiment in a line: Potentiation of [3H]MK-801 binding, NMDAR2D. Particulars: NMDAR2D binding profile, wild-type. The arrangement: species or system rat. The protocol:
Assays were conducted as described by Moskal et al., “GLYX-13: a monoclonal antibody-derived peptide that acts as an N-rnethyl-D-aspartate receptor modulator,” Neuropharmacology, 49, 1077-87, 2005. The potentiation of [^3H]MK-801 binding (5 nrM; 22.5 Ci/mmol) to well washed rat cortical membranes (200 μg) was measured under non-equilibrium conditions (15 min @ 25° C.) in the presence of increasing concentrations of Compound A.
Assays were conducted as described above in Example 5, by Moskal et al. (2005).

What is called EC50 is the midpoint of the concentration-response curve.

Sequence of NMDAR2D (O15399 28-1336, species assumed, other chains not shown): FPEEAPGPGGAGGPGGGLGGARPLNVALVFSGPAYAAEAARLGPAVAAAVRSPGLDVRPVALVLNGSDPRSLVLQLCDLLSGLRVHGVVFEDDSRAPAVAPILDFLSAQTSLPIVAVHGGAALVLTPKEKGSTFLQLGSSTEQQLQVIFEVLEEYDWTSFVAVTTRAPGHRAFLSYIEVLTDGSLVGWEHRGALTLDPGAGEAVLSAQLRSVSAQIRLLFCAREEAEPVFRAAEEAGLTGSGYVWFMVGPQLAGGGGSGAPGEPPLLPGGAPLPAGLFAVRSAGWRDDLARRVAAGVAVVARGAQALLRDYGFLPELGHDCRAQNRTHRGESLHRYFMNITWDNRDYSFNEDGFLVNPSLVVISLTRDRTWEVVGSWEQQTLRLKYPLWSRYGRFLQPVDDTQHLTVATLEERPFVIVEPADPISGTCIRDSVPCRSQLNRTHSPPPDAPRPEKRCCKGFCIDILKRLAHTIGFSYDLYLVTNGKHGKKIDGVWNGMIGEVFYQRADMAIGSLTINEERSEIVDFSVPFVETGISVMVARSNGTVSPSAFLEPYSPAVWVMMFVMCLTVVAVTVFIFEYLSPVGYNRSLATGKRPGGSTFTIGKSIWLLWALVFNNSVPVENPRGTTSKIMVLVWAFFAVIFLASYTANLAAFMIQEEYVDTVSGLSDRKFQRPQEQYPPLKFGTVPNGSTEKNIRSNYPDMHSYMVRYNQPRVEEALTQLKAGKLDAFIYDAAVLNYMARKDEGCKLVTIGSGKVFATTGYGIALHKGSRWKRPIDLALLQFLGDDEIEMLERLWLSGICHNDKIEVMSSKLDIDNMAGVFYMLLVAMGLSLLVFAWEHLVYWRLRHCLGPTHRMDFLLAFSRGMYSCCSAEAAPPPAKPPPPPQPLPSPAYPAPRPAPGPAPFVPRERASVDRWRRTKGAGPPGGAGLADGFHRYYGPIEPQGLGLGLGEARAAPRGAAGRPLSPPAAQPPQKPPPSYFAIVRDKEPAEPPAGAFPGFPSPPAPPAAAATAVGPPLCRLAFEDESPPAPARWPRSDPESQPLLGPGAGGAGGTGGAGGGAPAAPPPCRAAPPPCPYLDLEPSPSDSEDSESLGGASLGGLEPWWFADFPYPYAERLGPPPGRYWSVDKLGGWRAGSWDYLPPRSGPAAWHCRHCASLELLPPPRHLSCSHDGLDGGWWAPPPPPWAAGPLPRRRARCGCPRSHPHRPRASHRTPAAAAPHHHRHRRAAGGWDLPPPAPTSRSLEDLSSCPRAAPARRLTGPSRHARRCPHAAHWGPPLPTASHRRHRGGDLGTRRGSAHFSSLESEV

For the compound `CC(C)CN1CCC[C@]12CN([C@H](C(N)=O)[C@@H](C)O)C2=O` [Compound A, (2S,3R)-3-hydroxy-2-((R)-5-isobutyl-1-oxo-2,5-diazaspiro[3.4]octan-2-yl)butanamide], the fraction unbound in data set [1] is 0.701.

Turning to `CC(C)CN1CCC[C@@]12CN([C@H](C(N)=O)[C@@H](C)O)C2=O` [Compound B, (2S,3R)-3-hydroxy-2-((S)-5-isobutyl-1-oxo-2,5-diazaspiro[3.4]octan-2-yl)butanamide], the fraction unbound in data set [1] was 0.802. Besides, the half-maximal effective concentration (EC50) in data set [2] is 3.98 nM.

The values are drawn from patent US10196401B2, “Spiro-lactam NMDA receptor modulators and uses thereof” (Aptinyx Inc., priority 2016, dated 2019).
